In ChEMBL document CHEMBL5620396, “Phenotypic screening identifies a trisubstituted imidazo[1,2-a]pyridine series that induces differentiation in multiple AML cell lines” (Eur J Med Chem, 2023):
Values after ≈ are worked out from the molar mass of the structure shown. Active and inactive are the calls of the source. No cut-off for these calls is given here.

Assays:
KG-1 [1] = assay: Induction of morphological changes in human KG-1 cells assessed as variations in nuclear:cytoplasmic ratio at 10 uM; format: functional, cell-based
[2] = Oral bioavailability in CD-1 mouse at 3 mg/kg administered as single dose and measured over 24 hrs; format: ADME, organism-based; conditions: in vivo
[3] = Dose normalized Cmax in CD-1 mouse at 1 mg/kg, po administered as repeated dose on day 1 and 4; format: ADME, organism-based; conditions: in vivo, 96 h, time 4 day
[4] = AUC (0 to 8 hrs) in CD-1 mouse at 20 mg/kg, po administered as repeated dose on day 1 and 4; format: ADME, organism-based; conditions: in vivo, time 4 day
[5] = Solubility of compound at pH 7; format: physicochemical; conditions: buffer
[6] = Semi-thermodynamic aqueous solubility of compound; format: physicochemical; conditions: buffer; read-out: Therm_solubility
[7] = Cmax in CD-1 mouse at 20 mg/kg, po administered as repeated dose on day 1 and 4; format: ADME, organism-based; conditions: in vivo, time 4 day
[8] = Toxicity in CD-1 mouse assessed as adverse effects at 3 mg/kg, po administered twice daily for 7 days; format: organism-based; conditions: in vivo, 168 h, time 7 day
[9] = Dose normalized AUC (0 to 8 hrs) in CD-1 mouse at 20 mg/kg, po administered as repeated dose on day 1 and 4; format: ADME, organism-based; conditions: in vivo, 96 h, time 4 day
THP-1 [10] = assay: Induction of morphological changes in human THP-1 cells assessed as variations in nuclear:cytoplasmic ratio at 10 uM; format: functional, cell-based
OCI-AML-3 [11] = assay: Induction of morphological changes in human OCI-AML-3 cells assessed as variations in nuclear segmentation at 10 uM; format: functional, cell-based
KG-1 [12] = assay: Induction of morphological changes in human KG-1 cells assessed as variations in nuclear segmentation at 10 uM; format: functional, cell-based
[13] = Dose normalized AUC (0 to 8 hrs) in CD-1 mouse at 1 mg/kg, po administered as single dose and measured on day 1; format: ADME, organism-based; conditions: in vivo, 24 h, time 1 day
OCI-AML-3 [14] = assay: Induction of morphological changes in human OCI-AML-3 cells assessed as appearance of granules and vacuoles at 10 uM; format: functional, cell-based
Kasumi 1 [15] = assay: Induction of morphological changes in human Kasumi 1 cells assessed as variations in nuclear:cytoplasmic ratio at 10 uM; format: functional, cell-based
KG-1 [16] = assay: Induction of differentiation in human KG-1 cells assessed as reduction in live cell number at 123 nM incubated for 4 days by acridine orange/DAPI staining based analysis; format: functional; conditions: time 4.0 day
THP-1 [17] = assay: Induction of differentiation in human THP-1 cells assessed as upregulation of CD11b response incubated for 4 days by flow cytometry analysis; conditions: THP-1, 96 h
[18] = Dose normalized Cmax in CD-1 mouse at 20 mg/kg, po administered as repeated dose on day 1 and 4; format: ADME, organism-based; conditions: in vivo, 96 h, time 4 day
[19] = Apparent clearance in CD-1 mouse at 3 mg/kg, po administered as single dose and measured over 24 hrs; format: ADME, organism-based; conditions: in vivo
[20] = Plasma protein binding in mouse; format: ADME, cell-free; conditions: read-out: PPB (converted)
KG-1 [21] = assay: Induction of morphological changes in human KG-1 cells assessed as variations in cell size and shape at 10 uM; format: functional, cell-based
HL-60 [22] = assay: Induction of morphological changes in human HL-60 cells assessed as variations in nuclear:cytoplasmic ratio at 10 uM; format: functional, cell-based
OCI-AML-3 [23] = assay: Induction of differentiation in human OCI-AML-3 cells assessed as upregulation of CD11b response incubated for 4 days by flow cytometry analysis; conditions: OCI-AML-3, 96 h
[24] = Dose normalized AUC (0 to 8 hrs) in CD-1 mouse at 20 mg/kg, po administered as single dose and measured on day 1; format: ADME, organism-based; conditions: in vivo, 24 h, time 1 day
[25] = Cmax in CD-1 mouse at 20 mg/kg, po administered as single dose and measured on day 1; format: ADME, organism-based; conditions: in vivo, time 1 day
[26] = Cmax in CD-1 mouse at 1 mg/kg, po administered as single dose and measured on day 1; format: ADME, organism-based; conditions: in vivo, time 1 day
[27] = Dose normalized AUC (0 to 8 hrs) in CD-1 mouse at 1 mg/kg, po administered as repeated dose on day 1 and 4; format: ADME, organism-based; conditions: in vivo, 96 h, time 4 day
[28] = AUC (0 to 8 hrs) in CD-1 mouse at 1 mg/kg, po administered as single dose and measured on day 1; format: ADME, organism-based; conditions: in vivo, time 1 day
THP-1 [29] = assay: Induction of differentiation in human THP-1 cells assessed as reduction in live cell number at 123 nM incubated for 4 days by acridine orange/DAPI staining based analysis; format: functional; conditions: time 4.0 day
Kasumi 1 [30] = assay: Induction of morphological changes in human Kasumi 1 cells assessed as variations in cell size and shape at 10 uM; format: functional, cell-based
[31] = AUC (0 to 8 hrs) in CD-1 mouse at 20 mg/kg, po administered as single dose and measured on day 1; format: ADME, organism-based; conditions: in vivo, time 1 day
[32] = Dose normalized Cmax in CD-1 mouse at 3 mg/kg, po administered as single dose and measured over 24 hrs; format: ADME, organism-based; conditions: in vivo
ME-1 = assay: Induction of morphological changes in human ME-1 cells assessed as appearance of granules and vacuoles at 10 uM; format: functional, cell-based
[33] = Dose normalized Cmax in CD-1 mouse at 20 mg/kg, po administered as single dose and measured on day 1; format: ADME, organism-based; conditions: in vivo, 24 h, time 1 day
HL-60 [34] = assay: Induction of morphological changes in human HL-60 cells assessed as variations in cell size and shape at 10 uM; format: functional, cell-based
Kasumi 1 [35] = assay: Induction of morphological changes in human Kasumi 1 cells assessed as variations in nuclear segmentation at 10 uM; format: functional, cell-based
OCI-AML-3 [36] = assay: Induction of differentiation in human OCI-AML-3 cells assessed as reduction in live cell number at 123 nM incubated for 4 days by acridine orange/DAPI staining based analysis; format: functional; conditions: time 4.0 day
[37] = Cmax in CD-1 mouse at 1 mg/kg, po administered as repeated dose on day 1 and 4; format: ADME, organism-based; conditions: in vivo, time 4 day
[38] = Half life in CD-1 mouse at 20 mg/kg, po administered as repeated dose on day 1 and 4; format: ADME, organism-based; conditions: in vivo, time 4 day
[39] = Dose normalized Cmax in CD-1 mouse at 1 mg/kg, po administered as single dose and measured on day 1; format: ADME, organism-based; conditions: in vivo, 24 h, time 1 day
HL-60 [40] = assay: Induction of morphological changes in human HL-60 cells assessed as variations in nuclear segmentation at 10 uM; format: functional, cell-based
[41] = Apparent volume of distribution during terminal phase in CD-1 mouse at 3 mg/kg, po administered as single dose and measured over 24 hrs; format: ADME, organism-based; conditions: in vivo, read-out: Vz/F
HL-60 [42] = assay: Induction of morphological changes in human HL-60 cells assessed as appearance of granules and vacuoles at 10 uM; format: functional, cell-based
[43] = AUC (0 to 8 hrs) in CD-1 mouse at 3 mg/kg, po administered as single dose and measured over 24 hrs; format: ADME, organism-based; conditions: in vivo
THP-1 [44] = assay: Induction of morphological changes in human THP-1 cells assessed as variations in cell size and shape at 10 uM; format: functional, cell-based
[45] = Half life in CD-1 mouse at 3 mg/kg, po administered as single dose and measured over 24 hrs; format: ADME, organism-based; conditions: in vivo
[46] = Cmax in CD-1 mouse at 3 mg/kg, po administered as single dose and measured over 24 hrs; format: ADME, organism-based; conditions: in vivo
[47] = Half life in CD-1 mouse at 1 mg/kg, po administered as repeated dose on day 1 and 4; format: ADME, organism-based; conditions: in vivo, time 4 day

- bioavailability [2]: 100%
- Cmax/dose [3]: 204 ng/mL
- AUC(0-t) at 96 h [4]: 4370 ng·h/mL
- solubility [5]: 21 µM (≈ 9.44 µg/mL)
- solubility thermodynamic [6]: 21 µM (≈ 9.44 µg/mL)
- Cmax [7]: 784 ng/mL
- AUC/dose [9]: 218 ng·h/mL
- AUC/dose [13]: 845 ng·h/mL
- EC50 (THP-1 [17]): 69 nM
- Cmax/dose [18]: 39 ng/mL
- CL/F [19]: 16 mL/min/kg
- fraction unbound [20]: 0.005
- EC50 (OCI-AML-3 [23]): 25 nM
- AUC/dose [24]: 223 ng·h/mL
- Cmax [25]: 677 ng/mL
- Cmax [26]: 187 ng/mL
- AUC/dose [27]: 731 ng·h/mL
- AUC(0-t) at 24 h [28]: 845 ng·h/mL
- AUC(0-t) at 24 h [31]: 4460 ng·h/mL
- Cmax/dose [32]: 120 ng/mL
- Cmax/dose [33]: 34 ng/mL
- Cmax [37]: 204 ng/mL
- half-life [38]: 4.1 h
- Cmax/dose [39]: 187 ng/mL
- Vd/F [41]: 3.1 L/kg
- AUC(0-t) at 24 h [43]: 3060 ng·h/mL
- half-life [45]: 2.2 h
- Cmax [46]: 360 ng/mL
- half-life [47]: 2.5 h
SMILES: Cc1cc(F)ccc1-c1cc(NS(C)(=O)=O)c2ncc(-c3ccc4c(cnn4C)c3)n2c1
- Activity (KG-1 [1]): Active
- Activity [8]: Non-Toxic
- Activity (THP-1 [10]): Active
- Activity (OCI-AML-3 [11]): Active
- Activity (KG-1 [12]): Active
- Activity (OCI-AML-3 [14]): Active
- Activity (Kasumi 1 [15]): Active
- Activity (KG-1 [16]): Active
- Activity (KG-1 [21]): Active
- Activity (HL-60 [22]): Active
- Activity (THP-1 [29]): Active
- Activity (Kasumi 1 [30]): Active
- Activity (ME-1): Active
- Activity (HL-60 [34]): Active
- Activity (Kasumi 1 [35]): Active
- Activity (OCI-AML-3 [36]): Active
- Activity (HL-60 [40]): Active
- Activity (HL-60 [42]): Active
- Activity (THP-1 [44]): Active
